SMILES strings stand for the structures. Where only a bound is given, the exact number is not on record here.

Assay [1] is described as follows: Selectivity ratio of Ki for kappa opioid receptor in guinea pig cerebellum to Ki for mu opioid receptor in mouse whole brain without cerebellum.
The species entered for the next assay is Mus musculus. Briefly: Selectivity ratio of Ki for delta opioid receptor in mouse whole brain without cerebellum to Ki for mu opioid receptor in mouse whole brain without cerebellum.
A short description of assay [2]: Selectivity ratio of Ki for mu opioid receptor in mouse whole brain without cerebellum to Ki for kappa opioid receptor in guinea pig cerebellum.
For assay [3], the target named is Kappa-type opioid receptor (Cavia porcellus, UniProt P41144). The assay is described as follows: Displacement of [3H]U-69,593 from kappa opioid receptor in guinea pig cerebellum. A general note: In a radioligand displacement assay an active substance lowers the binding of a labelled ligand.
Assay [4] has as its target Delta-type opioid receptor (Mus musculus, UniProt P32300). The assay is described as follows: Displacement of [3H]DPDPE from delta opioid receptor in mouse whole brain without cerebellum.
Assay [5] deals with Mu-type opioid receptor (Mus musculus, UniProt P42866). Briefly: Displacement of [3H]DAMGO from mu opioid receptor in mouse whole brain without cerebellum.
Assay [6] in a line: Selectivity ratio of Ki for delta opioid receptor in mouse whole brain without cerebellum to Ki for kappa opioid receptor in guinea pig cerebellum.
Assay [7] addresses T1, Mu-type opioid receptor (Homo sapiens, UniProt P35372). The assay is described as follows: Agonist activity at human mu opioid receptor expressed in CHO cells assessed as [35S]GTPgammaS binding after 2 hrs by liquid scintillation counting relative to DAMGO. Format: functional, cell-based. In general terms: Binding of GTPγS marks nucleotide exchange on a G protein.
For assay [8], the target named is T1, Mu-type opioid receptor. The assay is described as follows: Agonist activity at human mu opioid receptor expressed in CHO cells assessed as [35S]GTPgammaS binding after 2 hrs by liquid scintillation counting. In kind it is functional, cell-based.
Assay [9] deals with T2, Kappa-type opioid receptor (Homo sapiens, UniProt P41145). Briefly: Agonist activity at human kappa opioid receptor expressed in CHO cells assessed as [35S]GTPgammaS binding after 2 hrs by liquid scintillation counting relative to U-69,593. Format: functional, cell-based.
In assay [10] the target is T2, Kappa-type opioid receptor. Briefly: Agonist activity at human kappa opioid receptor expressed in CHO cells assessed as [35S]GTPgammaS binding after 2 hrs by liquid scintillation counting. In kind it is functional, cell-based.

Chain of Mu-type opioid receptor (Mus musculus, UniProt P42866) (P42866 whole entry): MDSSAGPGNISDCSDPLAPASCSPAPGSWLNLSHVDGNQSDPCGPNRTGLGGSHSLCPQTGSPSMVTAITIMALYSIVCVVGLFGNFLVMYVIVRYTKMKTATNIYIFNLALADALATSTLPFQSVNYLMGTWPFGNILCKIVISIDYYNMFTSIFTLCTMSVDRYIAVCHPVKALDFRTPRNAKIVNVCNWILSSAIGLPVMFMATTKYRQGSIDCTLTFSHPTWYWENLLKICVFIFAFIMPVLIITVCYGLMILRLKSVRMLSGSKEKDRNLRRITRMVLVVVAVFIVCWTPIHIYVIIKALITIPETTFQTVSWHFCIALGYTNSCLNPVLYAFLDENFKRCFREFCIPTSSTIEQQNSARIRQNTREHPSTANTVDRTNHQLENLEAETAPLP
Chain of Delta-type opioid receptor (P32300 whole entry): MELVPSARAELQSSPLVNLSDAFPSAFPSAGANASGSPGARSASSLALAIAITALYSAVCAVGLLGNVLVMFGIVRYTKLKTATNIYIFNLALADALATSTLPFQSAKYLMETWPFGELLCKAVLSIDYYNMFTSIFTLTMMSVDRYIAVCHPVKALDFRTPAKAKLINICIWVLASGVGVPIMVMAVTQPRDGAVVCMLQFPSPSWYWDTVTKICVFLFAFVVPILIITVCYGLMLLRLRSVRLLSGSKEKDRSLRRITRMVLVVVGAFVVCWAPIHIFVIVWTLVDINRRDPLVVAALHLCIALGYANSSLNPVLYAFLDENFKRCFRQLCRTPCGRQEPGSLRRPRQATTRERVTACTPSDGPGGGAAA
Chain of Kappa-type opioid receptor (Cavia porcellus, UniProt P41144) (P41144 whole entry): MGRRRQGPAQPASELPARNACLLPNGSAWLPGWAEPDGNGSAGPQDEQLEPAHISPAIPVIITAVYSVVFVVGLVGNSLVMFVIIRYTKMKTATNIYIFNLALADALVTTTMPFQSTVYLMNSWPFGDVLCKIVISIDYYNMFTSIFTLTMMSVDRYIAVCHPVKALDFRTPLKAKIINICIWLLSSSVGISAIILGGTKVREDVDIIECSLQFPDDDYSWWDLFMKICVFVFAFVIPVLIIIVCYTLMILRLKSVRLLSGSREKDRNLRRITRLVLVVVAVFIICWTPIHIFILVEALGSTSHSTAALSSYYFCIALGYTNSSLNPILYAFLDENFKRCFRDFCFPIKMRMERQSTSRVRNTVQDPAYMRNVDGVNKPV
T2 sequence (P41145 whole entry): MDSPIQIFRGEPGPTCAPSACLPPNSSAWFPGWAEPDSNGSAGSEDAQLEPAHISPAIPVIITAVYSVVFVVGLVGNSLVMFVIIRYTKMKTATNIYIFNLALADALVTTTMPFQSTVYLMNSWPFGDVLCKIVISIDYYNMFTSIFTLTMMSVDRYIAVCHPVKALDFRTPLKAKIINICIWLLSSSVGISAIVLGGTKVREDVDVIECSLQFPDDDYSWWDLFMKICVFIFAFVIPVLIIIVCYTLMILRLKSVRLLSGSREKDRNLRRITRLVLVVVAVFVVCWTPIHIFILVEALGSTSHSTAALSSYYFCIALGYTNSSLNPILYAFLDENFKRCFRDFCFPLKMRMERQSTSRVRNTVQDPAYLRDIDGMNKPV
T1 sequence (P35372 whole entry): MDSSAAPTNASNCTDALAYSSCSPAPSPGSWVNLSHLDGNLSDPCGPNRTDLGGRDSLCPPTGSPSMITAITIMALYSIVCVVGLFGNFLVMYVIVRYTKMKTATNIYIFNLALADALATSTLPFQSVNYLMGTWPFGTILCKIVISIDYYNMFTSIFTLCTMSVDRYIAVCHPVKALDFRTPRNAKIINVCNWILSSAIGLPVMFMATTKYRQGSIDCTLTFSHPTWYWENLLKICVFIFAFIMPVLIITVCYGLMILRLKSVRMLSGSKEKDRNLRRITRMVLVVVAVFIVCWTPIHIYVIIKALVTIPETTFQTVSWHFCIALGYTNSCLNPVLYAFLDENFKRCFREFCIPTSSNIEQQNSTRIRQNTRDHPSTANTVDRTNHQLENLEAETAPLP

A word on the Ki: it is a measure of affinity in units of concentration, obtained from inhibition or displacement. Low values mean tighter binding, high ones weaker binding. As for `CC1(C)O[C@H]2N3[C@@H]1O[C@]1(CC[C@@]4(O)[C@H]5Cc6ccc(O)c7c6[C@@]4(CCN5Cc4ccccc4)[C@H]1O7)[C@H]3OC2(C)C`, the Ratio Ki in assay [1] was > 2.22; in the assay filed under Mus musculus, > 2.22; in assay [2], < 0.45. Moreover, the figures for the Ki (in [3]; in assay [4]; at Mu-type opioid receptor [5]) were > 1000 nM, > 1000 nM and 450 nM, respectively.
`CC(C)CN1CC[C@]23c4c5ccc(O)c4O[C@H]2[C@]2(CC[C@@]3(O)[C@H]1C5)O[C@@H]1CO[C@@H]3CO[C@H]2N31`: the Ratio Ki is > 10.1 in assay [1], 0.798 in the assay listed under Mus musculus, < 0.079 in assay [6] and < 0.099 in [2]. The figures for the Ki (in assay [3]; in assay [4]; at Mu-type opioid receptor [5]) were > 1000 nM, 79.1 nM and 99.1 nM, respectively.
Consider `Oc1ccc2c3c1O[C@H]1[C@]4(CC[C@@]5(O)[C@@H](C2)N(Cc2ccccc2)CC[C@]315)O[C@H]1CO[C@H]2CO[C@@H]4N21`, for which the Ratio Ki in assay [1] is > 1.72; in the assay listed under Mus musculus, 0.145; in assay [6], < 0.084; in [2], < 0.581. Also, the Ki in [3] is > 1000 nM; in [4], 84 nM; on Mu-type opioid receptor [5], 581 nM.
For the compound `CC(C)CN1CC[C@]23c4c5ccc(O)c4O[C@H]2[C@]2(CC[C@@]3(O)[C@H]1C5)O[C@H]1CO[C@H]3CO[C@@H]2N31`, the Ratio Ki in assay [1] is > 11.7; in the assay filed under Mus musculus it was 9.89; in assay [6], < 0.848; in assay [2] it was < 0.086. Moreover, the Ki was > 1000 nM in [3], 848 nM in assay [4] and 85.7 nM at Mu-type opioid receptor [5].
As for `CC1(C)O[C@@H]2N3[C@H]1O[C@]1(CC[C@@]4(O)[C@H]5Cc6ccc(O)c7c6[C@@]4(CCN5Cc4ccccc4)[C@H]1O7)[C@@H]3OC2(C)C`, the Ki (in [3]; in assay [4]; on Mu-type opioid receptor [5]) was > 1000 nM each time.
`CC1(C)O[C@H]2N3[C@@H]1O[C@]1(CC[C@@]4(O)[C@H]5Cc6ccc(O)c7c6[C@@]4(CCN5CC4CC4)[C@H]1O7)[C@H]3OC2(C)C`: the Ratio Ki in [1] turned out to be 3.69; in the assay filed under Mus musculus, 33.6; in [6], 9.1; in [2] it was 0.271. The Ki stood at 7.89 nM in assay [3], 71.8 nM in assay [4] and 2.14 nM at Mu-type opioid receptor [5].
For `CN1CC[C@]23c4c5ccc(O)c4O[C@H]2[C@]2(CC[C@@]3(O)[C@H]1C5)O[C@@H]1N3[C@@H](OC1(C)C)C(C)(C)O[C@H]32`, the Ratio Ki in assay [1] was > 375; in the assay listed under Mus musculus it was 3.66; in assay [6], < 0.0098; in assay [2] it was < 0.0027. For the same compound, the Ki in [3] was > 1000 nM; in assay [4], 9.78 nM; at Mu-type opioid receptor [5], 2.67 nM.
By Emax is commonly meant the maximal effect, on the per cent scale that the assay sets. Usually EC50 stands for the concentration at which the effect is half-maximal. Regarding `CN1CC[C@]23c4c5ccc(O)c4O[C@H]2[C@]2(CC[C@@]3(O)[C@H]1C5)O[C@H]1N3[C@H](OC1(C)C)C(C)(C)O[C@@H]32`, the Emax at Mu-type opioid receptor [7] was 79.1%. The EC50 at Mu-type opioid receptor [8] was determined as 6 nM. In addition, the Ratio Ki in assay [1] was > 541; in the assay listed under Mus musculus it was 42.8; in [6] it was < 0.079; in [2] it was < 0.0019. Moreover, the Ki is > 1000 nM in [3], 79.1 nM in [4] and 1.85 nM at Mu-type opioid receptor [5].
`CC1(C)O[C@@H]2N3[C@H]1O[C@]1(CC[C@@]4(O)[C@H]5Cc6ccc(O)c7c6[C@@]4(CCN5CC4CC4)[C@H]1O7)[C@@H]3OC2(C)C`: the Ratio Ki amounted to 4.52 in assay [1], 4.11 in the assay filed under Mus musculus, 0.909 in assay [6] and 0.221 in [2]. Besides, the figures for the Ki (in assay [3]; in assay [4]; on Mu-type opioid receptor [5]) were 24.2 nM, 22 nM and 5.35 nM, respectively.
Consider `CC(C)CN1CC[C@]23c4c5ccc(O)c4O[C@H]2[C@]2(CC[C@@]3(O)[C@H]1C5)O[C@H]1N3[C@H](OC1(C)C)C(C)(C)O[C@@H]32`, for which the Ratio Ki is > 11.4 in [1], > 11.4 in the assay listed under Mus musculus and < 0.088 in [2]. For the same compound, the Ki was > 1000 nM in assay [3], > 1000 nM in assay [4] and 88.1 nM on Mu-type opioid receptor [5].
Take `CN1CC[C@]23c4c5ccc(O)c4O[C@H]2[C@]2(CC[C@@]3(O)[C@H]1C5)O[C@H]1CO[C@H]3CO[C@@H]2N31`: the Ratio Ki in assay [1] is > 420; in the assay filed under Mus musculus, 55.9; in assay [6], < 0.133; in assay [2], < 0.0024. Moreover, the Ki in assay [3] was > 1000 nM; in assay [4], 133 nM; at Mu-type opioid receptor [5], 2.38 nM.
As to `Oc1ccc2c3c1O[C@H]1[C@]4(CC[C@@]5(O)[C@@H](C2)N(CC2CC2)CC[C@]315)O[C@H]1CO[C@H]2CO[C@@H]4N21`, the Ratio Ki in assay [1] was determined as 0.869; in the assay listed under Mus musculus, 11.5; in [6], 13.2; in [2] it was 1.15. In addition, the results for the Ki (in assay [3]; in assay [4]; at Mu-type opioid receptor [5]) were 5.95 nM, 78.6 nM and 6.85 nM, respectively.
With `Oc1ccc2c3c1O[C@H]1[C@]4(CC[C@@]5(O)[C@@H](C2)N(CC2CC2)CC[C@]315)O[C@@H]1CO[C@@H]2CO[C@H]4N21`, in assay [9], the Emax was 70%. The 50% effective concentration (EC50) in assay [10] turned out to be 25 nM. In addition, the Ratio Ki in [1] turned out to be 0.446; in the assay listed under Mus musculus it was 11.5; in assay [6], 25.9; in assay [2], 2.24. The results for the inhibition constant Ki (in assay [3]; in assay [4]; on Mu-type opioid receptor [5]) were 3.86 nM, 99.8 nM and 8.65 nM, respectively.
For the compound `CN1CC[C@]23c4c5ccc(O)c4O[C@H]2[C@]2(CC[C@@]3(O)[C@H]1C5)O[C@@H]1CO[C@@H]3CO[C@H]2N31`, the Ratio Ki in [1] was determined as 46.6; in the assay filed under Mus musculus, 73.1; in assay [6], 1.57; in assay [2] it was 0.0214. For the same compound, the values for the Ki (in assay [3]; in [4]; on Mu-type opioid receptor [5]) were 109 nM, 171 nM and 2.34 nM, respectively.
Consider `Oc1ccc2c3c1O[C@H]1[C@]4(CC[C@@]5(O)[C@@H](C2)N(Cc2ccccc2)CC[C@]315)O[C@@H]1CO[C@@H]2CO[C@H]4N21`, for which the inhibition constant Ki (in assay [3]; in assay [4]; on Mu-type opioid receptor [5]) was > 1000 nM each time.
For `CC(C)CN1CC[C@]23c4c5ccc(O)c4O[C@H]2[C@]2(CC[C@@]3(O)[C@H]1C5)O[C@@H]1N3[C@@H](OC1(C)C)C(C)(C)O[C@H]32`, the Ratio Ki in [1] was > 7.46; in the assay filed under Mus musculus it was 4.04; in assay [6], < 0.541; in assay [2], < 0.134. Moreover, the inhibition constant Ki was > 1000 nM in assay [3], 541 nM in assay [4] and 134 nM on Mu-type opioid receptor [5].

These data come from ChEMBL document CHEMBL2203184, “Synthesis of novel triplet drugs with 1,3,5-trioxazatriquinane skeletons and their pharmacologies. 3: synthesis of novel triplet drugs with the bis(epoxymethano) or bis(dimethylepoxymethano) structure (double-capped triplet)” (Bioorg Med Chem Lett, 2012).
